# In PMC12751012, “Nanoscale Direct-to-Biology Optimization and Structural Insights into Selective S. aureus TrmD Inhibitors” (Journal of Medicinal Chemistry, 2025):
# Legend:
# S. aureus RN4220 lysate = assay: Bacterial lysate carbamate cleavage assay (LC/MS); format: in vitro ADME, Staphylococcus aureus; details: 400 μM, 16 h; for cleavage in S. aureus lysate: LC/MS; for degree of carbamate cleavage to 8h: S. aureus lysate
# Description: An overnight culture of S. aureus RN4220 was set up in TSB medium (BD Bacto Tryptic Soy Broth). The next day, a 150 mL day culture was started at an initial OD600 of 0.1. The culture was incubated at 200 rpm shaking at 37 °C. The bacteria were harvested after 3 h and 40 min (OD600 = 3.30). A 1 mL aliquot was retained to determine cell number. 150 mL of the culture was centrifuged at 4000 rpm for 10 min at 4 °C. The resulting pellet was resuspended in 10 mL of JB Lysis Buffer (0.1% Triton X-100, 20 mM Tris-HCl, 150 mM KCl, 1 mM MgCl2, 1 mM DTT, and protease inhibitors) and transferred to FastPrep tubes. Cells were mechanically lysed (2 × 30 s, 6.5 m/s) and cooled for 5 min on ice. The samples were centrifuged, and the supernatant was transferred to a new tube. Subsequently, it was centrifuged again at 5000 rpm for 30 min at 4 °C. The pellet was washed three times with 1× PBS, reducing the volume to 1 mL. Protein concentration was determined using the Pierce BCA Protein Assay Kit (Thermo Scientific). The final sample was frozen in liquid nitrogen and stored at −80 °C. 100 μL of this lysate was incubated with 8f–h (final concentration 400 μM, 2% DMSO) for 16 h at 30 °C. Afterward, 100 μL acetonitrile was added, and the samples were passed through a syringe filter. Ten μL of the samples were injected during LC/MS (Agilent 1100 system, LC/MSD trap) using an Agilent Poroshell 120 EC-C18 150 × 2.10 mm 4 μm column; mobile phase (gradient: acetonitrile/H2O, 0.1% formic acid). The LC/MS chromatograms and their corresponding mass spectra (base-peak) were analyzed using MestReNova (12.0.4) for prodrug deprotection products.
# S. aureus RN4220 = assay: Minimal bactericidal concentration (MBC) determination, CFU/mL; format: cell-based, Staphylococcus aureus; details: 24 h static incubation
# Description: To determine the minimal bactericidal concentration of the substances, bacterial cultures were prepared as in the bacterial growth inhibition assay but incubated statically at 37 °C. A serial dilution of the initial culture was made and plated on a TSB agar plate to determine the CFU/mL of the original culture. After 24 h, the cultures were diluted again and plated. Bacterial colonies were counted, and the CFU/mL was calculated. The experiment was performed in n = 3 biological replicates. Data evaluation was done using GraphPad Prism. One-way ANOVA with Dunnett’s multiple comparisons test was used for statistical analysis, and all samples were compared to the starting CFU/mL.
Structure (SMILES),cleavage in S. aureus lysate (S. aureus RN4220 lysate),degree of carbamate cleavage to 8h (S. aureus RN4220 lysate) [%],effect on CFU/mL after 24 h (MBC determination) (S. aureus RN4220),concentration from which growth (CFU/mL) is affected (S. aureus RN4220) [µM]
CC(C)(C)OC(=O)/N=C(\NCCn1cc(-c2c[nH]c3nc[nH]c(=O)c23)nn1)NC(=O)OC(C)(C)C [Compound 8g],readily cleaved,~30,cell growth is not negatively affected,–
O=C(/N=C(\NCCn1cc(-c2c[nH]c3nc[nH]c(=O)c23)nn1)NC(=O)OCc1ccccc1)OCc1ccccc1 [Compound 8f],readily cleaved,~30,bacteria were not killed completely,12.5
